Key:
mice [1] = assay: Anti-reserpine activity in mice (reserpine hypothermia); assay type: in vivo; details: reserpine 2.5 mg.kg^-1 i.p. 4 h before
Experimental: Anti-reserpine activity in mice
At time 0, the mice receive reserpine (2.5 mg.kg^-1) by intraperitoneal administration.
After 4 hours, when the hypothermia is significant (30 to 31°C.), the substance to be studied is administered intraperitoneally or orally. The rectal temperature is measured, using a probe, carrying a thermoelectric couple, inserted to a constant depth, every 30 minutes for 2 hours.

mice [2] = assay: Motor activity in mice (activity meters with photoelectric cells); assay type: in vivo
Experimental: The motor activity was determined with the aid of activity meters having photoelectric cells (Boissier and Simon, Arch. int. Pharmacodyn. 1965, 158, 212-221). A minimum of 10 animals was always used per batch.
The mice are placed in the activity meter just after the oral or intraperitoneal administration of the product acccording to the invention, obtained in accordance with Example I. The motor activity is measured as from the introduction into the activity meter up to the 60th minute. The counters are read after 30 minutes, then reset to 0 and read every 10 minutes for 30 minutes.

CC1CC(c2ccc(Cl)cc2)C(c2ccccc2)C(=O)O1 (stereo not drawn) [Example I, trans-4-(4'-chlorophenyl)-6-methyl-3-phenyl-3,4,5,6-tetrahydropyrone-2]
Rectal temperatures °C. ± SD (mice [1]; 16 mg/kg intraperitoneal, 60 min): 35.7 ± 0.34 °C | Rectal temperatures °C. ± SD (mice [1]; 16 mg/kg intraperitoneal, 90 min): 35.3 ± 0.37 °C | Rectal temperatures °C. ± SD (mice [1]; 16 mg/kg intraperitoneal, 120 min): 35.0 ± 0.44 °C | Rectal temperatures °C. ± SD (mice [1]; 32 mg/kg intraperitoneal, 30 min): 34.8 ± 0.48 °C | Rectal temperatures °C. ± SD (mice [1]; 32 mg/kg intraperitoneal, 60 min): 36.2 ± 0.38 °C | Rectal temperatures °C. ± SD (mice [1]; 32 mg/kg intraperitoneal, 90 min): 35.6 ± 0.38 °C | Rectal temperatures °C. ± SD (mice [1]; 32 mg/kg intraperitoneal, 120 min): 35.7 ± 0.37 °C | Number of rays passed through by mice (mice [2]; Table Ia, 1 mg/kg intraperitoneal, 30 + 10 min): 76 | Number of rays passed through by mice (mice [2]; Table Ia, 1 mg/kg intraperitoneal, 30 + 20 min): 163 | Number of rays passed through by mice (mice [2]; Table Ia, 1 mg/kg intraperitoneal, 30 + 30 min): 235 | Number of rays passed through by mice (mice [2]; Table Ia, 1 mg/kg intraperitoneal, 30 min): 400 | Number of rays passed through by mice (mice [2]; Table Ia, 2 mg/kg intraperitoneal, 30 + 10 min): 114 | Number of rays passed through by mice (mice [2]; Table Ia, 2 mg/kg intraperitoneal, 30 + 20 min): 231 | Number of rays passed through by mice (mice [2]; Table Ia, 2 mg/kg intraperitoneal, 30 + 30 min): 331 | Number of rays passed through by mice (mice [2]; Table Ia, 2 mg/kg intraperitoneal, 30 min): 474 | Number of rays passed through by mice (mice [2]; Table Ia, 4 mg/kg intraperitoneal, 30 + 10 min): 129 | Number of rays passed through by mice (mice [2]; Table Ia, 4 mg/kg intraperitoneal, 30 + 20 min): 269 | Number of rays passed through by mice (mice [2]; Table Ia, 4 mg/kg intraperitoneal, 30 + 30 min): 322 | Number of rays passed through by mice (mice [2]; Table Ia, 4 mg/kg intraperitoneal, 30 min): 529 | Number of rays passed through by mice (mice [2]; Table Ia, 4 mg/kg oral, 30 + 10 min): 139 | Number of rays passed through by mice (mice [2]; Table Ia, 4 mg/kg oral, 30 + 20 min): 257 | Number of rays passed through by mice (mice [2]; Table Ia, 4 mg/kg oral, 30 + 30 min): 386 | Number of rays passed through by mice (mice [2]; Table Ia, 4 mg/kg oral, 30 min): 462 | Number of rays passed through by mice (mice [2]; Table Ia, 8 mg/kg intraperitoneal, 30 + 10 min): 147 | Number of rays passed through by mice (mice [2]; Table Ia, 8 mg/kg intraperitoneal, 30 + 20 min): 309 | Number of rays passed through by mice (mice [2]; Table Ia, 8 mg/kg intraperitoneal, 30 + 30 min): 467 | Number of rays passed through by mice (mice [2]; Table Ia, 8 mg/kg intraperitoneal, 30 min): 659 | Number of rays passed through by mice (mice [2]; Table Ia, 8 mg/kg oral, 30 + 10 min): 157 | Number of rays passed through by mice (mice [2]; Table Ia, 8 mg/kg oral, 30 + 20 min): 314 | Number of rays passed through by mice (mice [2]; Table Ia, 8 mg/kg oral, 30 + 30 min): 461 | Number of rays passed through by mice (mice [2]; Table Ia, 8 mg/kg oral, 30 min): 478 | Number of rays passed through by mice (mice [2]; Table Ia, 16 mg/kg intraperitoneal, 30 + 10 min): 176 | Number of rays passed through by mice (mice [2]; Table Ia, 16 mg/kg intraperitoneal, 30 + 20 min): 336 | Number of rays passed through by mice (mice [2]; Table Ia, 16 mg/kg intraperitoneal, 30 + 30 min): 465 | Number of rays passed through by mice (mice [2]; Table Ia, 16 mg/kg intraperitoneal, 30 min): 763 | Number of rays passed through by mice (mice [2]; Table Ia, 16 mg/kg oral, 30 + 10 min): 232 | Number of rays passed through by mice (mice [2]; Table Ia, 16 mg/kg oral, 30 + 20 min): 428 | Number of rays passed through by mice (mice [2]; Table Ia, 16 mg/kg oral, 30 + 30 min): 636 | Number of rays passed through by mice (mice [2]; Table Ia, 16 mg/kg oral, 30 min): 629 | Number of rays passed through by mice (mice [2]; Table Ia, 32 mg/kg intraperitoneal, 30 + 10 min): 187 | Number of rays passed through by mice (mice [2]; Table Ia, 32 mg/kg intraperitoneal, 30 + 20 min): 422 | Number of rays passed through by mice (mice [2]; Table Ia, 32 mg/kg intraperitoneal, 30 + 30 min): 594 | Number of rays passed through by mice (mice [2]; Table Ia, 32 mg/kg intraperitoneal, 30 min): 891 | Number of rays passed through by mice (mice [2]; Table Ia, 32 mg/kg oral, 30 + 10 min): 270 | Number of rays passed through by mice (mice [2]; Table Ia, 32 mg/kg oral, 30 + 20 min): 587 | Number of rays passed through by mice (mice [2]; Table Ia, 32 mg/kg oral, 30 + 30 min): 869 | Number of rays passed through by mice (mice [2]; Table Ia, 32 mg/kg oral, 30 min): 783 | Number of rays passed through by mice (mice [2]; Table Ib, 2 mg/kg, route not given, 0 + 10 min): 119 | Number of rays passed through by mice (mice [2]; Table Ib, 2 mg/kg, route not given, 30 + 20 min): 221 | Number of rays passed through by mice (mice [2]; Table Ib, 2 mg/kg, route not given, 30 + 30 min): 334 | Number of rays passed through by mice (mice [2]; Table Ib, 2 mg/kg, route not given, 30 min): 417 | Number of rays passed through by mice (mice [2]; Table Ib, 4 mg/kg, route not given, 0 + 10 min): 129 | Number of rays passed through by mice (mice [2]; Table Ib, 4 mg/kg, route not given, 30 + 20 min): 259 | Number of rays passed through by mice (mice [2]; Table Ib, 4 mg/kg, route not given, 30 + 30 min): 376 | Number of rays passed through by mice (mice [2]; Table Ib, 4 mg/kg, route not given, 30 min): 472 | Number of rays passed through by mice (mice [2]; Table Ib, 8 mg/kg, route not given, 0 + 10 min): 141 | Number of rays passed through by mice (mice [2]; Table Ib, 8 mg/kg, route not given, 30 + 20 min): 286 | Number of rays passed through by mice (mice [2]; Table Ib, 8 mg/kg, route not given, 30 + 30 min): 443 | Number of rays passed through by mice (mice [2]; Table Ib, 8 mg/kg, route not given, 30 min): 452 | Number of rays passed through by mice (mice [2]; Table Ib, 16 mg/kg, route not given, 0 + 10 min): 172 | Number of rays passed through by mice (mice [2]; Table Ib, 16 mg/kg, route not given, 30 + 20 min): 359 | Number of rays passed through by mice (mice [2]; Table Ib, 16 mg/kg, route not given, 30 + 30 min): 537 | Number of rays passed through by mice (mice [2]; Table Ib, 16 mg/kg, route not given, 30 min): 565 | Number of rays passed through by mice (mice [2]; Table Ib, 32 mg/kg, route not given, 0 + 10 min): 184 | Number of rays passed through by mice (mice [2]; Table Ib, 32 mg/kg, route not given, 30 + 20 min): 376 | Number of rays passed through by mice (mice [2]; Table Ib, 32 mg/kg, route not given, 30 + 30 min): 547 | Number of rays passed through by mice (mice [2]; Table Ib, 32 mg/kg, route not given, 30 min): 560

— patent publication US4287206A, “Halogen derivatives of 8-hydroxycarboxylic acids; the processes for their preparation and medicaments in which they are present” (priority 1978, dated 1981)
